One molecule from patent US20220274935A1, “PHARMACEUTICAL COMPOSITION FOR PREVENTING OR TREATING BONE DISEASES” (INDUSTRY FOUNDATION OF CHONNAM NATIONAL UNIVERSITY, priority 2019, published 2022) can be followed below.

Series [1] relates to osteoclast differentiation of monocytes isolated from the mouse bone marrow. Description: Osteoclast differentiation inhibitory ability through TRAP staining and assay (RANKL-induced monocytes). As to conditions: treated together with RANKL; compared to other derivatives; FIG. 1. The class given is cell-based. How it is done:
The bone marrow of a 10-week-old female mouse was isolated from the hip bone, femur and tibia, followed by culturing the same in α-MEM medium (Gibco, 12561-056, 10% fetal bovine serum, 1% penicillin/streptomycin) containing macrophage colony stimulating factor (M-CSF, PeproTech, 315-02, 30 ng/ml) for 3 days in order to isolate only monocytes. The isolated monocytes were treated with receptor activator of nuclear factor kappa B ligand (RANKL, PeproTech, 315-11, 50 ng/ml) to induce osteoclast differentiation. During RANKL treatment, each compound (35D35, 35D5, 35D3, and 35D8) was used for treatment and the cells were cultured for 3 or 5 days so as to confirm the degree of osteoclast differentiation.
1×10^4 monocytes isolated from the mouse bone marrow were put into a 96-well plate and treated with each compound (35D35, 35D5, 35D3, and 35D8) together with RANKL, thereby confirming the effects of each compound on osteoclast differentiation ability. Using the TRAP activity assay kit (Cosmo Bio, PMC-AK04F-COS), the activity of tartrate-resistant acid phosphatase (TRAP) with increased expression during osteoclast differentiation was confirmed. […] After staining, multinuclear cells formed during osteoclast differentiation were confirmed under a microscope. Further, each well was photographed and a differentiation area ratio per total area was determined using Image J software.
Further, the effects of the 35D35 compound having excellent osteoclast production inhibitory ability with respect to osteoclast differentiation period was investigated. Specifically, BMM was divided into 5 groups (Ctrl, Period I to IV), and cultured for 4 days in a culture medium containing 30 ng/mL M-CSF and 50 ng/mL RANKL. BMMs in Period I to IV groups were exposed to 1 μM 35D35 for 24 hours on different days, respectively. After 4 days, the cells of each group were fixed, followed by TRAP staining, and then, the presence of osteoclasts was confirmed.

For series [2], the system named is RANKL-induced F-actin belt formation in BMM. Nature of the series: F-actin ring (belt) formation ability of differentiated osteoclasts. The class given is cell-based, mouse. The note with it: 6 μM; FIG. 5. How it is done:
In order to confirm the activity of differentiated osteoclasts, F-actin ring formation ability was measured. Specifically, BMM was seeded on a 12 mm cover glass with or without compounds (35D3: 6 μM, 35D5 and 35D35: 2 μM), followed by M-CSF and LANKL treatment. After the osteoclasts were formed in the control, the osteoclasts were fixed in 4.0% paraformaldehyde for 15 minutes, and then incubated in 5% FBS and blocked for about 60 minutes. After washing with PBS, rhodamine-conjugated phalloidin (1:40) was added to each well to visualize a F-actin belt. After 20 minutes, the cells were incubated along with a DAPI (1:5000) solution for 5 minutes. After washing three times with PBS, cells were observed using a fluorescence microscope.
A F-actin size was measured using Image J.

The test system of series [3] is F-actin formation in mouse bone marrow cells. Nature of the series: F-actin staining for differentiation into multinuclear cells, 35D3 (PPOA). Format: cell-based. The note with it: 6 uM, cultured 4 to 5 days; FIG. 18. As to the method: In order to determine the activity of differentiated osteoclasts, an ability of differentiating into multinuclear cells was measured through F-actin staining. 5×10^4 mouse bone marrow cells per well was put into a 24-well plate in which glass coated with L-Lysine was placed (Corning, 354085). At the same time, the cells were treated with 6 uM of 35D3 (PPOA) and then cultured for 4 to 5 days. The differentiated cells were fixed with 4% formaldehyde for 10 minutes and washed with PBS. For an antigen-antibody reaction, the cells were subjected to a reaction in 0.1% Triton-PBS for 20 minutes, followed by a reaction with 1% BSA for 1 hour. The F-actin antibody (Thermo Fisher Scientific, A12379) was reacted for 1 hour and then washed. Cell nuclei were stained through DAPI (4′,6-Diamidino-2-Phenylindole, Dilactate, Thermo Fisher Scientific, D3571) staining, and then, photographed under a microscope. As a result, it was confirmed that the size of F-actin was different depending on the presence or absence of 35D3 (PPOA) treatment (see FIG. 18).

In series [4] the test system is bone resorption ability of osteoclasts (mouse bone marrow cells). Nature of the series: Bone resorption assay kit, 35D3 (PPOA). The class given is cell-based. As to conditions: exposure to 3, 6, and 10 μM; FIG. 19. As to the method: Further, the bone resorption ability was confirmed using a bone resorption assay kit (Cosmo Bio, CSR-BRA). Mouse bone marrow cells were seeded on a bone resorption assay plate 48 (2×10^4 cells/well) containing 30 ng/Ml of M-CSF. […] The next day, the culture supernatant from the cells was collected on a 96-well black polypropylene micro-well plate (Thermo Fisher Scientific Nunc, Waltham, Md., USA). After mixing 50 μL of 0.1 N of NaOH, fluorescence intensity was measured with a fluorescence plate reader (Molecular Devices, San Jose, Calif., USA-model: SpectraMax i3x); and the excitation and emission wavelengths were […] and 535 nm, respectively. The absorption area was calculated in consideration of 10 randomly selected pictures per well taken at 10 magnification using Image J software (https://imagej.nih.gov/ij).

Series [5] has as its system preosteoclasts. Description: MTT assay for cytotoxicity assessment (cell viability). Format: cell-based, mouse. The note with it: MCSF 30 ng/mL, concentration of 10 uM. How it is done:
MTT Assay for Cytotoxicity Assessment
After treatment of preosteoclasts with 35D35 or 35D3 (=PPOA) (1-10 uM), cell viability was evaluated. Specifically, 1×10^4 cells per well were put into a 96-well plate, and only MCSF (30 ng/mL) and PPOA were cultured by day under the indicated concentration conditions. Thereafter, a cell viability assay reagent (DoGen, EZ-3000) was used with 1/10 of the volume of the medium for treatment, and then the cells were incubated at 37° C. for 30 minutes and observed at […]. […] That is, it was confirmed that there was no cytotoxicity.

The test system of series [6] is osteoclast differentiation of monocytes isolated from the mouse bone marrow. Description: Osteoclast differentiation inhibitory ability of 35D3 (PPOA) through TRAP staining and analysis. The class given is cell-based. The note with it: 3 μM, compared to group in which osteoclasts were differentiated normally. How it is done:
The bone marrow of a 12-week-old female mouse was isolated from the hip bone, femur and tibia, followed by culturing the same in α-MEM medium (Gibco, 12561-056, 10% fetal bovine serum, 1% penicillin/streptomycin) containing macrophage colony stimulating factor (M-CSF, PeproTech, cat #315-02, 30 ng/ml) for 3 days in order to isolate only monocytes. The isolated monocytes were treated with RANKL (PeproTech, cat #315-11, 50 ng/ml) to induce osteoclast differentiation. Then, 35D3 (PPOA) was also used for treatment, followed by culturing the cells for 3 days or 5 days.
1×10^4 monocytes isolated from the mouse bone marrow were put into a 96-well plate and treated with RANKL to confirm the effect of 35D3 (PPOA) (3 μM) on osteoclast differentiation ability.
The activity of tartrate-resistant acid phosphatase (TRAP), which has increased expression during osteoclast differentiation, was confirmed using a TRAP activity assay kit (Sigma-Aldrich, 387A-1kt), which is shown in FIG. 16.
After staining, the multinuclear cells formed during osteoclast differentiation were observed under a microscope, and 12 images per well were photographed and combined into one well image, and a differentiation area ratio per total area was confirmed using Image J software. The differentiation area ratio per total area is shown in A of FIG. 17, and the area of TRAP-positive cells (nuclear number >3) was compared with DMSO (100%) and presented as a relative value.
Further, the number of differentiated osteoclasts was counted and determined, and this was shown in B of FIG. 17, and cells in which the number of cell nuclei contained in the differentiated osteoclasts is in the range of 3-5, 6-10, 11-20, and 21 or more, were classified and shown in C of FIG. 17.

Series [7] concerns ovariectomized mouse model (OVX). Description: Ovariectomized (OVX) mouse osteoporosis model, tibia micro-computed tomography. The note with it: OVX mice, intraperitoneal once every two days, after 4 weeks, microcomputer tomography; FIGS. 11 to 14. Format: in vivo. How it is done: An ovariectomized mouse model (OVX, ovariectomized mouse) with osteoporosis due to estrogen deficiency after ovariectomy in 8-week-old female mouse were prepared. Compounds (35D35, 35D5, and 35D3), respectively, were injected intraperitoneally once every two days to the ovariectomized mouse model. After 4 weeks, the tibia of each mouse was analyzed for bone density by microcomputer tomography.
FIGS. 11 to 14 show the micro-computed tomography results (Sham: the control in which the ovaries were not removed) and graphs for analysis of the micro-computed tomography results with regard to the tibia of the mouse models (*P<0.05, **P<0.01, and ***P<0.001 vs. the control, OVX. BMD: trabecular bone mineral density).

For the molecule `CC(=O)N1CCN(c2ccccc2NC(=O)COc2ccccc2Cl)CC1` [35D3, N-(2-(4-acetylpiperazin-1-yl)phenyl)-2-(2-chlorophenoxy)acetamide], the “degree of osteoclast differentiation by TRAP staining” value in series [1] was “superior osteoclast differentiation inhibitory effects compared to other derivatives”. In series [2], the “inhibition of RANKL-induced F-actin belt formation” value is “excellent effects of inhibiting RANKL-induced F-actin belt formation”. In series [3], the “differentiation into multinuclear cells (size of F-actin)” value is listed as “could inhibit differentiation into multinuclear cells”. Moreover, the “proportion of bone resorption area” value in series [4] was “significant decrease”. Also, in series [5], the “cytotoxicity (cell viability, apoptosis effects)” value was “apoptosis effects were not exhibited”. In addition, in series [6] (FIG. 17), the giant multinuclear cells result was “significantly reduced” and the number of osteoclasts result is reported as “significantly reduced”. Further, the “differentiation area (TRAP-positive cells per total area)” value in series [6] (FIGS. 16 and 17) is recorded as “significantly reduced”. In series [7], the “bone density of tibia vs control (OVX)” value is given as “did not exhibit higher” and the “bone volume of tibia vs control (OVX)” value was “did not exhibit higher”.
